What was measured:
Assay in all cases: relative viability (nuclei count vs DMSO), 5 days (fraction); higher = more cells survive
[1] = compound: C1=CC=C2C(=C1)N=C(S2)C(C#N)C3=NC(=NC=C3)NCCC4=CN=CC=C4 + Cc1cc(Nc2cc(N3CCN(C)CC3)nc(Sc3ccc(NC(=O)C4CC4)cc3)n2)n[nH]1 [Tozasertib] (partner 0.1 µM)
In short: (§1)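 After 5 days of treatment, lung cancer cells in 1536-well plates were fixed and stained in a single step (final 0.05% Triton X-100, 1% formaldehyde, 1 ug/ml Hoechst) and their nuclei counted on 4× images. Treatment had been applied by pin tool the day after seeding as one drug alone or as a fixed anchor-drug dose with five library-drug doses (not always all listed) in √10 steps. Relative viability is the nuclei count of treated wells divided by that of vehicle wells, and values are medians of duplicate plates.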

Vandetanib + Trametinib = compound: COc1cc2/c(=N/c3ccc(Br)cc3F)nc[nH]c2cc1OCC1CCN(C)CC1 [Vandetanib] + CC(=O)Nc1cccc(-n2c(=O)n(C3CC3)c(=O)c3c(Nc4ccc(I)cc4F)n(C)c(=O)c(C)c32)c1 [Trametinib] (partner 0.02 µM)
In short: as §1

[2] = compound: C1=CC=C2C(=C1)N=C(S2)C(C#N)C3=NC(=NC=C3)NCCC4=CN=CC=C4 + Nc1ncn([C@H]2C[C@H](O)[C@@H](CO)O2)c(=O)n1 [Decitabine] (partner 2 µM)
In short: as §1

NVP-TAE684 + Decitabine = compound: COc1cc(N2CCC(N3CCN(C)CC3)CC2)ccc1Nc1ncc(Cl)c(Nc2ccccc2S(=O)(=O)C(C)C)n1 [NVP-TAE684] + Nc1ncn([C@H]2C[C@H](O)[C@@H](CO)O2)c(=O)n1 [Decitabine] (partner 2 µM)
In short: as §1

| Cell Line | relative viability ([1]; first compound 0.005 µM) | relative viability ([1]; first compound 0.01581 µM) | relative viability ([1]; first compound 0.05 µM) | relative viability ([1]; first compound 0.1581 µM) | relative viability ([1]; first compound 0.5 µM) | relative viability (Vandetanib + Trametinib; first compound 0.02 µM) | relative viability (Vandetanib + Trametinib; first compound 0.06325 µM) | relative viability (Vandetanib + Trametinib; first compound 0.2 µM) | relative viability (Vandetanib + Trametinib; first compound 0.6325 µM) | relative viability (Vandetanib + Trametinib; first compound 2 µM) | relative viability ([2]; first compound 0.005 µM) | relative viability ([2]; first compound 0.01581 µM) | relative viability ([2]; first compound 0.05 µM) | relative viability ([2]; first compound 0.1581 µM) | relative viability ([2]; first compound 0.5 µM) | relative viability (NVP-TAE684 + Decitabine; first compound 0.2 µM) | relative viability (NVP-TAE684 + Decitabine; first compound 0.6325 µM) | relative viability (NVP-TAE684 + Decitabine; first compound 2 µM) |
| --- | --- | --- | --- | --- | --- | --- | --- | --- | --- | --- | --- | --- | --- | --- | --- | --- | --- | --- |
| HARA | 0.098 | 0.0872 | 0.114 | 0.0978 | 0.118 | 0.515 | 0.522 | 0.574 | 0.857 | 0.523 | 0.7 | 0.574 | 0.634 | 0.538 | 0.584 | 0.664 | 0.55 | 0.234 |
| 201T | 0.788 | 0.964 | 0.941 | 0.929 | 0.837 | 0.715 | 0.68 | 0.751 | 0.696 | 0.676 | 0.772 | 0.91 | 0.868 | 0.833 | 0.911 | – | 0.867 | 0.684 |
| EMC-BAC-2 | 0.268 | 0.32 | 0.262 | 0.278 | 0.234 | 1.01 | 0.844 | 0.872 | 0.902 | 0.822 | 0.872 | 0.984 | 0.916 | 1.04 | 0.91 | 0.978 | 0.946 | 0.708 |
| NCI-H441 | – | 0.715 | 0.633 | 0.759 | 0.531 | 0.527 | 0.467 | 0.43 | 0.405 | 0.351 | 0.267 | 0.303 | 0.252 | 0.246 | 0.239 | 0.235 | 0.279 | 0.232 |
| NCI-H1944 | 0.275 | 0.255 | 0.25 | 0.269 | 0.24 | 0.456 | 0.427 | 0.425 | 0.402 | 0.369 | 0.404 | 0.497 | 0.412 | 0.433 | 0.388 | 0.437 | 0.519 | 0.413 |
| NCI-H727 | 0.629 | 0.674 | 0.51 | 0.512 | 0.686 | 0.417 | 0.379 | 0.366 | 0.364 | 0.329 | 0.992 | 0.879 | 0.983 | 1 | 0.786 | 0.836 | 0.771 | 0.552 |
| NCI-H1993 | 0.625 | 0.657 | 0.521 | 0.608 | 0.577 | 0.568 | 0.552 | 0.499 | 0.545 | 0.494 | 0.663 | 0.641 | 0.607 | 0.699 | 0.59 | 0.618 | 0.629 | 0.501 |
| ChaGo-K-1 | – | 0.209 | 0.223 | 0.251 | 0.255 | 0.878 | 0.87 | 0.253 | 0.929 | 0.866 | 0.488 | 0.53 | 0.518 | 0.542 | 0.511 | 0.536 | 0.52 | 0.427 |
| NCI-H3122 | 0.46 | 0.419 | 0.433 | 0.386 | 0.344 | 0.208 | 0.186 | 0.113 | 0.259 | 0.204 | 0.333 | 0.394 | 0.492 | 0.577 | 0.441 | 0.152 | 0.109 | 0.103 |
| NCI-H1651 | 0.618 | 0.793 | 0.518 | 0.661 | 0.457 | 0.822 | 0.818 | 0.83 | 0.876 | 0.727 | 0.546 | 0.557 | 0.684 | 0.711 | 0.603 | 0.614 | 0.566 | 0.502 |
| NCI-H1355 | 0.445 | 0.516 | 0.463 | 0.594 | 0.385 | 0.412 | 0.426 | 0.438 | 0.465 | 0.402 | 0.367 | 0.376 | 0.381 | 0.358 | 0.366 | 0.372 | 0.383 | 0.31 |
| NCI-H596 | 0.774 | 1 | 0.81 | 0.917 | 0.853 | 0.773 | 0.763 | 0.756 | 0.758 | 0.634 | 0.711 | 1 | 1 | 0.919 | 0.985 | 1 | 1.08 | 0.989 |
| NCI-H23 | 0.634 | 0.304 | 0.35 | 0.301 | 0.343 | 0.382 | 0.342 | 0.335 | 0.455 | 0.293 | – | 0.306 | 0.329 | 0.323 | 0.338 | 0.31 | 0.322 | 0.241 |
| HCC-366 | 0.102 | 0.087 | 0.075 | 0.0798 | 0.0706 | 0.265 | 0.339 | 0.343 | 0.362 | 0.269 | 0.328 | 0.385 | 0.363 | 0.344 | 0.321 | 0.37 | 0.401 | 0.315 |
| NCI-H2126 | 0.709 | 0.837 | 0.823 | 0.934 | 0.681 | 0.58 | 0.546 | 0.556 | 0.502 | 0.504 | 0.495 | 0.579 | 0.565 | 0.546 | 0.577 | 0.56 | 0.603 | 0.459 |
| LU99A | 0.258 | 0.247 | 0.224 | 0.278 | 0.214 | 0.486 | 0.518 | 0.396 | 0.512 | 0.539 | 0.693 | 0.966 | – | 1 | 0.817 | 0.97 | – | 0.496 |
| NCI-H650 | 0.633 | – | 0.708 | 0.742 | 0.644 | 0.995 | 0.927 | 0.947 | 0.929 | 0.981 | 0.316 | 0.356 | 0.319 | 0.338 | 0.325 | 0.306 | 0.329 | 0.276 |
| LXF-289 | 0.173 | 0.197 | 0.184 | 0.232 | 0.237 | 0.681 | 0.663 | 0.606 | 0.69 | 0.677 | 0.345 | 0.419 | 0.4 | 0.405 | 0.336 | 0.433 | 0.384 | 0.267 |
